The nature of data set [1]: Wheel box test (NACE publication ID182), corrosion of carbon steel coupons in CO2-saturated brine/oil. The following applies: for corrosion inhibitor performance (in words): wheel box test. The text has this:
To determine the efficacy of the compositions as corrosion inhibitors, a wheel box test was used. It is a testing methodology from NACE publication ID182. The method is used to assess the degree of protection afforded to a metal surface that is in contact with water laden with carbon dioxide (C02). The wheel box test is a test that is often used in the field for comparative corrosion inhibitor performance tests. The standard test conditions used in the performance test are in Table 1.
A continuous wheel box test procedure was used to compare the performance of the corrosion inhibitor formulations of the invention in mitigating the corrosion of carbon steel in solutions saturated with carbon dioxide. Into a set of bottles containing the desired brine and oil mixtures, Table 1, clean and pre-weighed coupons were immersed. The solution was purged with carbon dioxide, after which the solutions were dosed with the various concentrations of the formulations. After purging the headspace with carbon dioxide, the bottles were immediately capped to prevent aerial exposure.
Blanks, comprising bottles of untreated mixtures, were used to determine the baseline corrosion rate under the test conditions. The bottles were placed on a rotating wheel under incubation at 80° C. for a period of 24 hours. Following the completion of the incubation, the bottles were retrieved and left to cooled to room temperature. The coupons were removed from the test solutions, cleaned, dried, sandblasted and re-weighed. By comparing the mass loss of the coupons immersed in treated solutions versus the mass loss for coupons placed in untreated solutions, the corrosion rate and protection efficiency were calculated.

The nature of data set [2]: Physical stability / water solubility of the inhibitor formulation (observation). Format: physicochemical. The following applies: for physical stability of the formulation: 418.4 mM solution in water.
Where [3] appears, read: 5 ppm of Corrosion Inhibitor, low dosage comparison, method of Example 4.
Setting [4] is: 10 ppm of Corrosion Inhibitor, low dosage comparison, method of Example 4.
Setting [5] is: 25 ppm of Corrosion Inhibitor, low dosage comparison, method of Example 4.
[6] abbreviates: 50 ppm of Corrosion Inhibitor, low dosage comparison, method of Example 4.
Where [7] appears, read: 20000 ppm inhibitor, 80° C., 24 hours, CO2 saturated, 80% ASTM Seawater brine / 20% LVT-200.
The mark [8] stands for this setting: 50000 ppm inhibitor, 80° C., 24 hours, CO2 saturated, 80% ASTM Seawater brine / 20% LVT-200.
[9] abbreviates: 5000 ppm inhibitor, 80° C., 24 hours, CO2 saturated, 80% ASTM Seawater brine / 20% LVT-200.

Several values for one entry are separate records, joined by “and”; a condition that tells them apart may be missing. Identical values can stand only once. Entries after “also recorded” stand apart in the source; their conditions may differ.

In the case of `CC(=O)[O-].CCCCCCCC/C=C\CCCCCCCC1=[N+](CC(O)c2ccccc2)CCN1CCNC1OC(CO)C(O)C(O)C1O` (stereo not shown) [Formula 2, (Z)-2-(heptadec-8-en-1-yl)-3-(2-hydroxy-2-phenylethyl)-1-(2-((3,4,5-trihydroxy-6-(hydroxymethyl)tetrahydro-2H-pyran-2-yl)amino)ethyl)-4,5-dihydro-1H-imidazol-3-ium acetate salt], the “% Protection” value is 28% in data set [1] (setting [3]); 36% in data set [1] (setting [4]); 57% in data set [1] (setting [5]); 73% in data set [1] (setting [6]); 91% and 92% in data set [1] (500 ppm inhibitor, 80° C., 24 hours, CO2 saturated, 80% ASTM Seawater brine / 20% LVT-200, listed as Formulation 2, acetate salt); 92% in data set [1] (1000 ppm inhibitor, 80° C., 24 hours, CO2 saturated, 80% ASTM Seawater brine / 20% LVT-200). The “% Protection” value in data set [1] (2000 ppm inhibitor, 80° C., 24 hours, CO2 saturated, 80% ASTM Seawater brine / 20% LVT-200, listed as Formulation 2, acetate salt) was 91% and 92%; in data set [1] (5000 ppm inhibitor, 80° C., 24 hours, CO2 saturated, 80% ASTM Seawater brine / 20% LVT-200, listed as Formulation 2, acetate salt), 92% and 93%; in data set [1] (10000 ppm inhibitor, 80° C., 24 hours, CO2 saturated, 80% ASTM Seawater brine / 20% LVT-200, listed as Formulation 2, acetate salt), 93% and 94%; in data set [1] (setting [7]), 94%; in data set [1] (setting [8]) it was 94%. The “corrosion inhibitor performance (in words)” value in data set [1] (acetate salt) is “greatly improved corrosion inhibitor performance even at low dosages; also recorded: highly effective; also recorded: perform significantly better than the comparative sample even at low dosage rates”. For the same compound, the solubility in water entry in data set [2] is “high solubility in water”. For the same compound, the “physical stability of the formulation” value in data set [2] is listed as “physically stable”.
Take `CC(=O)O.CCCCCCCC/C=C\CCCCCCCC1=NCCN1CCNC1OC(CO)C(O)C(O)C1O` (stereo not shown) [Formula 1, (Z)-2-((2-(2-(heptadec-8-en-1-yl)-4,5-dihydro-1H-imidazol-1-yl)ethyl)amino)-6-(hydroxymethyl)tetrahydro-2H-pyran-3,4,5-triol acetate salt]: the “% Protection” value was 22% in data set [1] (setting [3]); 32% in data set [1] (setting [4]); 54% in data set [1] (setting [5]); 63% in data set [1] (setting [6]); 95% in data set [1] (500 ppm inhibitor, 80° C., 24 hours, CO2 saturated, 80% ASTM Seawater brine / 20% LVT-200); 93% and 94% in data set [1] (1000 ppm inhibitor, 80° C., 24 hours, CO2 saturated, 80% ASTM Seawater brine / 20% LVT-200, listed as Formulation 1, acetate salt). Also, the “% Protection” value in data set [1] (2000 ppm inhibitor, 80° C., 24 hours, CO2 saturated, 80% ASTM Seawater brine / 20% LVT-200, listed as Formulation 1, acetate salt) was 93% and 94%; in data set [1] (setting [9]), 94%; in data set [1] (10000 ppm inhibitor, 80° C., 24 hours, CO2 saturated, 80% ASTM Seawater brine / 20% LVT-200, listed as Formulation 1, acetate salt), 95% and 94%; in data set [1] (20000 ppm inhibitor, 80° C., 24 hours, CO2 saturated, 80% ASTM Seawater brine / 20% LVT-200, listed as Formulation 1, acetate salt), 96% and 95%; in data set [1] (50000 ppm inhibitor, 80° C., 24 hours, CO2 saturated, 80% ASTM Seawater brine / 20% LVT-200, listed as Formulation 1, acetate salt), 95% and 94%. In addition, in data set [1], the “corrosion inhibitor performance (in words)” value was “perform significantly better than the comparative sample even at low dosage rates”.
Take `CCCCCCCC/C=C\CCCCCCCC1=NCCN1CCN` [Comparative Formulation, Acetate, reference compound]: the “% Protection” value in data set [1] (setting [3]) is 14%; in data set [1] (setting [4]), 24%; in data set [1] (setting [5]), 42%; in data set [1] (setting [6]), 55%; in data set [1] (500 ppm inhibitor, 80° C., 24 hours, CO2 saturated, 80% ASTM Seawater brine / 20% LVT-200, Acetate) it was 88% and 89%; in data set [1] (1000 ppm inhibitor, 80° C., 24 hours, CO2 saturated, 80% ASTM Seawater brine / 20% LVT-200, Acetate), 89% and 90%. The “% Protection” value is 90% and 89% in data set [1] (2000 ppm inhibitor, 80° C., 24 hours, CO2 saturated, 80% ASTM Seawater brine / 20% LVT-200, Acetate); 89% in data set [1] (setting [9]); 89% and 90% in data set [1] (10000 ppm inhibitor, 80° C., 24 hours, CO2 saturated, 80% ASTM Seawater brine / 20% LVT-200, Acetate); 89% in data set [1] (setting [7]); 90% in data set [1] (setting [8]). In addition, the average protection efficiency in data set [1] (average of Table 3 (500-50000 ppm)) was found to be 89%. In data set [1], the “corrosion inhibitor performance (in words)” value is listed as “robust even at low treatment doses”. In addition, the “physical stability of the formulation” value in data set [2] is reported as “physically unstable”.
